Reference: ChEMBL document CHEMBL1147610, “Orally active PDE4 inhibitors with therapeutic potential” (Bioorg Med Chem Lett, 2004)

Tests used:
Phosphodiesterase 4 [1] = target: T1, Phosphodiesterase 4 (Homo sapiens, UniProt P27815+Q08499+Q07343+Q08493); assay: Inhibition of PDE4 from U937 monocytic cells; assay type: cell-based; conditions: u-937
Cavia porcellus = assay: Inhibition of SRS-A-mediated bronchoconstriction and airway microvascular leakage in sensitized guinea pigs […] 1 hr prio to challenge; assay type: functional; conditions: Lung, route oral, read-out: ID50 (the source's name)
Homo sapiens = species on record: Homo sapiens; assay: Inhibition of LPS induced TNF-alpha production in human whole blood; assay type: functional; conditions: read-out: ID50 (the source's name)
Rattus norvegicus [2] = assay: Inhibition of LPS-induced TNF-alpha production in rats 0.5 hr after oral dose; assay type: functional; conditions: for ED50: read-out: ID50 (the source's name)
Rattus norvegicus [3] = species on record: Rattus norvegicus; assay: (§1) Inhibition of gastric emptying in rats; assay type: functional, Stomach
Rattus norvegicus [4] = species on record: Rattus norvegicus; assay: as §1; assay type: functional; conditions: Stomach, read-out: ID50 (the source's name)
Phosphodiesterase 4 [5] = target: T1, Phosphodiesterase 4; assay: Inhibition of PDE4 (Phosphodiesterase 4) from U937 cells; assay type: cell-based; conditions: U-937, concentration not given here

SMILES: COc1ccc([C@@]2(C#N)C[C@H]3C[C@H](C(=O)O)C[C@H]3C2)cc1OC1CCCC1
- IC50 (Phosphodiesterase 4 [1]): > 0.3 µM

SMILES: COc1ccc([C@]2(C#N)C[C@H]3C[C@@H](C(=O)O)C[C@H]3C2)cc1OC1CCCC1
- ED50 (Cavia porcellus): 9.6 mg/kg
- IC50 (Homo sapiens): 21 µM
- IC50 (Phosphodiesterase 4 [1]): 0.009 µM
- ED50 (Rattus norvegicus [2]): 0.4 mg/kg
- Inhibition (Rattus norvegicus [3]): 73%

SMILES: COc1ccc([C@]2(C#N)CC[C@@H](C(=O)O)CC2)cc1OC1CCCC1 [CILOMILAST]
- ED50 (Cavia porcellus): 4.5 mg/kg
- IC50 (Homo sapiens): 18 µM
- ED50 (Rattus norvegicus [2]): 1.7 mg/kg
- ED50 (Rattus norvegicus [4]): 5.7 mg/kg

SMILES: COc1ccc([C@]2(C#N)C[C@H]3C[C@@H](C(=O)O)C[C@H]3C2)cc1OC(C)C
- IC50 (Phosphodiesterase 4 [1]): 0.062 µM
- Inhibition (Rattus norvegicus [2]): 57%

SMILES: COc1ccc([C@@]2(C#N)C[C@H]3C[C@@H](C(=O)O)C[C@H]3C2)cc1OC1CCCC1
- IC50 (Phosphodiesterase 4 [1]): > 0.3 µM

SMILES: COc1ccc([C@]2(C#N)C[C@H]3C[C@@H](C(=O)NO)C[C@H]3C2)cc1OC1CCCC1
- IC50 (Phosphodiesterase 4 [1]): 0.0097 µM
- Inhibition (Rattus norvegicus [2]): 52%

SMILES: COc1ccc([C@]2(C#N)C[C@H]3C[C@@H](C(=O)NO)C[C@H]3C2)cc1OCC1CC1
- IC50 (Phosphodiesterase 4 [1]): 0.029 µM
- ED50 (Rattus norvegicus [2]): 3 mg/kg

SMILES: COc1ccc([C@]2(C#N)C[C@H]3C[C@@H](C(=O)O)C[C@H]3C2)cc1OC1Cc2ccccc2C1
- IC50 (Phosphodiesterase 4 [1]): 0.0013 µM
- ED50 (Rattus norvegicus [2]): 1.7 mg/kg

SMILES: COc1ccc([C@]2(C#N)C[C@H]3C[C@H](C(=O)O)C[C@H]3C2)cc1OC1CCCC1
- IC50 (Phosphodiesterase 4 [1]): 0.15 µM
- ED50 (Rattus norvegicus [2]): 3.8 mg/kg

SMILES: COc1ccc([C@]2(C#N)C[C@H]3C[C@@H](C(=O)NO)C[C@H]3C2)cc1OC(C)C
- IC50 (Phosphodiesterase 4 [1]): 0.012 µM
- Inhibition (Rattus norvegicus [2]): 47%

SMILES: COc1ccc([C@]2(C#N)C[C@H]3C[C@@H](C(=O)NO)C[C@H]3C2)cc1OC
- IC50 (Phosphodiesterase 4 [1]): 0.062 µM
- Inhibition (Rattus norvegicus [2]): 55%

SMILES: COc1ccc([C@]2(C#N)C[C@H]3C[C@@H](C(=O)O)C[C@H]3C2)cc1OCC1CC1
- IC50 (Phosphodiesterase 4 [1]): 0.1 µM

SMILES: COc1ccc([C@]2(C#N)C[C@H]3C[C@@H](C(=O)NO)C[C@H]3C2)cc1OC1Cc2ccccc2C1
- IC50 (Phosphodiesterase 4 [1]): 0.00085 µM
- Inhibition (Rattus norvegicus [2]): 17%

SMILES: CCOc1cc([C@]2(C#N)C[C@H]3C[C@@H](C(=O)O)C[C@H]3C2)ccc1OC
- IC50 (Homo sapiens): 5.8 µM
- IC50 (Phosphodiesterase 4 [1]): 0.026 µM
- ED50 (Rattus norvegicus [2]): 2.9 mg/kg
- ED50 (Rattus norvegicus [4]): 17 mg/kg

SMILES: CCOc1cc([C@]2(C#N)C[C@H]3C[C@@H](C(=O)NO)C[C@H]3C2)ccc1OC
- ED50 (Cavia porcellus): 5 mg/kg
- IC50 (Homo sapiens): 0.8 µM
- inhibition (Phosphodiesterase 4 [5]): 56%
- ED50 (Rattus norvegicus [2]): 1.8 mg/kg
- ED50 (Rattus norvegicus [4]): 12 mg/kg

SMILES: COc1ccc([C@]2(C#N)C[C@H]3C[C@@H](C(=O)O)C[C@H]3C2)cc1OC
- IC50 (Phosphodiesterase 4 [1]): 0.16 µM
